Columns and labels:
Experiment in all cases: relative viability (nuclei count vs DMSO), 5 days (fraction); higher = more cells survive
[1] = compound: C1=CC=C(C(=C1)C2=CC=C(C=C2)C3=CSC4=C3C(=C(C(=O)N4)C#N)O)O + CC(=O)c1c(C)c2cnc(Nc3ccc(N4CCNCC4)cn3)nc2n(C2CCCC2)c1=O [Palbociclib] (partner 0.5 µM)
Procedure, shortened: (§1)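 Relative viability is defined as nuclei in treated wells over nuclei in vehicle wells. Duplicate plates were run and medians reported. Lung cancer cell lines in 1536-well plates were dosed by pin tool one day after seeding, with one drug or with a fixed anchor-drug dose plus five library-drug doses (not always all listed) in √10 steps, and nuclei were counted after 5 days.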

TGX 221 + Bortezomib = compound: CC1=CN2C(=O)C=C(N=C2C(=C1)C(C)NC3=CC=CC=C3)N4CCOCC4 [TGX 221] + CC(C)C[C@H](NC(=O)[C@H](Cc1ccccc1)NC(=O)c1cnccn1)B(O)O [Bortezomib] (partner 0.002 µM)
Procedure, shortened: as §1

TGX 221 + Foretinib = compound: CC1=CN2C(=O)C=C(N=C2C(=C1)C(C)NC3=CC=CC=C3)N4CCOCC4 [TGX 221] + COc1cc2c(Oc3ccc(NC(=O)C4(C(=O)Nc5ccc(F)cc5)CC4)cc3F)ccnc2cc1OCCCN1CCOCC1 [Foretinib] (partner 0.25 µM)
Procedure, shortened: as §1

TGX 221 + Lapatinib = compound: CC1=CN2C(=O)C=C(N=C2C(=C1)C(C)NC3=CC=CC=C3)N4CCOCC4 [TGX 221] + CS(=O)(=O)CCNCc1ccc(-c2ccc3ncnc(Nc4ccc(OCc5cccc(F)c5)c(Cl)c4)c3c2)o1 [Lapatinib] (partner 2 µM)
Procedure, shortened: as §1

Cell Line	relative viability ([1]; first compound 0.08 µM)	relative viability ([1]; first compound 0.253 µM)	relative viability ([1]; first compound 0.8 µM)	relative viability ([1]; first compound 2.53 µM)	relative viability ([1]; first compound 8 µM)	relative viability (TGX 221 + Bortezomib; first compound 0.08 µM)	relative viability (TGX 221 + Bortezomib; first compound 0.253 µM)	relative viability (TGX 221 + Bortezomib; first compound 0.8 µM)	relative viability (TGX 221 + Bortezomib; first compound 2.53 µM)	relative viability (TGX 221 + Bortezomib; first compound 8 µM)	relative viability (TGX 221 + Foretinib; first compound 0.08 µM)	relative viability (TGX 221 + Foretinib; first compound 0.253 µM)	relative viability (TGX 221 + Foretinib; first compound 0.8 µM)	relative viability (TGX 221 + Foretinib; first compound 2.53 µM)	relative viability (TGX 221 + Foretinib; first compound 8 µM)	relative viability (TGX 221 + Lapatinib; first compound 0.08 µM)	relative viability (TGX 221 + Lapatinib; first compound 0.253 µM)	relative viability (TGX 221 + Lapatinib; first compound 2.53 µM)	relative viability (TGX 221 + Lapatinib; first compound 8 µM)	relative viability (TGX 221 + Lapatinib; first compound 0.8 µM)
HCC-78	0.463	0.477	0.45	0.602	0.413	0.435	0.38	0.429	0.24	0.335	0.581	0.551	0.586	0.478	0.502	0.702	0.699	0.277	0.794	
HCC-366		0.371	0.357	0.509	0.395	0.863	1.03	1.12	0.99	1.09	0.844	0.892	0.96	0.902	0.813	1.02	1	1.04	1.04	0.875
HCC-827	0.492	0.518	0.479	0.475	0.524	0.981	1.06	1.07	1.17	1.07	1.08	1.08	1.07	0.927	0.904	0.187	0.205	0.191	0.205	0.2
HOP-62	0.545	0.536	0.497	0.532	0.382	0.605	0.85	0.788	0.847	0.93	1.09	1.1	1.05	1.15	1.08	1.15	0.987	1.02	0.912	1.09
IA-LM						0.915	1.02	1.04	0.869	0.735	1.18	1.04	1.08	1.22	1.11	0.783	0.797	1.01	0.612	0.979
LCLC-103H	0.445	0.407	0.451	0.491	0.449	0.999	1.12	0.981	1.01	1.06	0.698	0.761	0.883	0.724	0.619					
LK-2	0.515	0.749	0.629	0.913	0.517						1.2	1.2	1.53	1.17	0.998	0.853	0.891	0.915	1.01	0.887
NCI-H358	0.13	0.17	0.124	0.135	0.123						0.702	0.664	0.711	0.597	0.587	0.477	0.458	0.42	0.442	0.472
NCI-H441	0.208	0.21	0.184	0.275	0.21	0.515	0.772	0.416	0.566	0.389	1.11	0.849	0.919	0.897	0.96					
NCI-H522	0.943	1.06	0.916	0.944	0.881															

— the supplement of paper PMC10307832
